Experiment: mn = molality of the nth substance listed, in mol/kg
Conditions: 100 kPa, Liquid, Vibrating tube method

C[C@H](N)C(=O)O [(S)-2-aminopropanoic acid] + O
mass density [kg/m3]
Conditions | m1 = 0.1 | m1 = 0.2 | m1 = 0.3 | m1 = 0.4
298.2 K | 999.9 | 1002.7 | 1005.5 | 1008.2
303.2 K | 998.4 | 1001.9 | 1004.1 | 1006.8
308.2 K | 996.8 | 1000.1 | 1002.3 | 1004.1

Source: the NIST ThermoML archive (doi:10.1021/acs.jced.5b00260)
